As a reminder, the Kd is the concentration at which binding is half-saturated.

This test concerns the target Receptor tyrosine-protein kinase erbB-2 (Homo sapiens, UniProt P04626). Briefly: Binding affinity to synthetic peptide mimicking HER2 subdomain 4 (unknown origin) by fluorescence spectroscopic analysis.

Active and inactive are the calls of the source. No cut-off for these calls is given here.

Sequence of Receptor tyrosine-protein kinase erbB-2 (P04626 whole entry): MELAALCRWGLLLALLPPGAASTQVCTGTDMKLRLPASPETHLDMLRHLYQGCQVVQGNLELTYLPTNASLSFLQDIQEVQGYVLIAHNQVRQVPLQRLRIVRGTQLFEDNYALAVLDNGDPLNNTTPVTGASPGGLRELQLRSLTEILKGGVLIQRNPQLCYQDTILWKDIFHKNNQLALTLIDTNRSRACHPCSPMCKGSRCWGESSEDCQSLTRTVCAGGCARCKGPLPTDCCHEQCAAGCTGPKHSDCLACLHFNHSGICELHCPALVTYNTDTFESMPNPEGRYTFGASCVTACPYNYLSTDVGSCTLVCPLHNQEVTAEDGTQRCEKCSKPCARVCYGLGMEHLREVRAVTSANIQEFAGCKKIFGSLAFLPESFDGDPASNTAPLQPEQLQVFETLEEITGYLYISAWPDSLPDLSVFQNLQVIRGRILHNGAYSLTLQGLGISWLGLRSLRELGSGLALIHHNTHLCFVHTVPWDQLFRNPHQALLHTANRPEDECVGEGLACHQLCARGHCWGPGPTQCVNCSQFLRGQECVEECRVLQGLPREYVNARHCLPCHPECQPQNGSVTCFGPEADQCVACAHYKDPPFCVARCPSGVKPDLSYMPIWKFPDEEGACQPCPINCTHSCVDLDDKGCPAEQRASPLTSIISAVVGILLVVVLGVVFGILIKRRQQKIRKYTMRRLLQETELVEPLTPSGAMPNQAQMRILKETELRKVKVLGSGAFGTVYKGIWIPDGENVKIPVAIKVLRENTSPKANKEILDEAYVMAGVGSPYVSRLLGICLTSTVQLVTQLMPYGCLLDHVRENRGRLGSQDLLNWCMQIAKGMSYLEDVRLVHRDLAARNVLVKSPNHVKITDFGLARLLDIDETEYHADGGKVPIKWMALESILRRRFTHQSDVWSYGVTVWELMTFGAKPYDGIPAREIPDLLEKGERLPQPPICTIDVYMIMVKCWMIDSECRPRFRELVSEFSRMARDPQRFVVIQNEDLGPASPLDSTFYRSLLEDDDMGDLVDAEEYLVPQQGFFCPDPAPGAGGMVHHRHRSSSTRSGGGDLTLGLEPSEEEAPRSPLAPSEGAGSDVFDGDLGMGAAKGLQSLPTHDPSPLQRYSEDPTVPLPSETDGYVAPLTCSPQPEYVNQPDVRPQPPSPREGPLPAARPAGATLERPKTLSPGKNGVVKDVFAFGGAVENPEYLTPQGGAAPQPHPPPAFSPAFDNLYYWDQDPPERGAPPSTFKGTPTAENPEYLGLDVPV

Take Ac-CQQHYTTPPTFG-NH2: the dissociation constant (Kd) stood at 174 nM. On the same count and under the same terms, then Ac-ARIYPTNGYTRY-NH2, with 446 nM.

Ac-CSRWGGDGFYAMDYWG-NH2: the outcome was inactive.

Take Ac-QDVNTAVAW-NH2: the Kd came to 10.2 nM.

For the origin of these results see ChEMBL document CHEMBL2331275, “Fluorescence study for selecting specific ligands toward HER2 receptor: an example of receptor fragment approach” (Eur J Med Chem, 2013).
